Experimental data from patent US9573921B2, “Substituted N, N-dimethylaminoalkyl ethers of isoflavanone oximes as H1-receptor antagonists” (POLFARMEX S.A., priority 2013, dated 2017).

Biological target: T1, H3 (Cavia porcellus, UniProt Q9JI35)
T1 construct: Whole jejunum segments (2 cm) were prepared and mounted between two platinum electrodes; from tissue; host or cells: guinea pig jejunum (small intestine, 20-50 cm proximal to the ileocaecal valve)
Test: H3 antagonistic effects in vitro, electrically stimulated guinea pig jejunum, versus (R)-α-methylhistamine
Assay type: cell-based
Conditions: (R)-α-methylhistamine as H3-agonist, pyrilamine 1·10^-5 mol/L present, Schild regression, read-out: pA2 (H3-antagonistic activity) (converted)
Protocol: Selected compounds were tested for H3 antagonistic effects in vitro, following standard methods, using the guinea pig ileum (R. C. Vollinga, O. P. Zuiderveld, H. Scheerens, A. Bast, H. Timmerman, Meth. Find. Exp. Cli. Pharmacol. 1992, 105, 747-751). Male guinea pigs weighing 300-400 g were sacrificed by a blow on the head. A portion of the small intestine, 20-50 cm proximal to the ileocaecal valve (jejunum), was removed and placed in Krebs buffer (composition (mM) NaCl 118; KCl 5.6; MgSO4 1.18; CaCl2 2.5; NaH2PO4 1.28; NaHCO3 25; glucose 5.5 and indomethacin (1 10^−6 mol/L)). […] Contractions were recorded isotonically under 1.0 g tension with Hugo Sachs Hebel-Messvorsatz (T1-2)/HF-modem (Hugo Sachs Electronik, Hugstetten, Germany) connected to a pen recorder. […] After 30 min of stimulation, five minutes before adding (R)-α-methylhistamine, pyrilamine (1.10^−5 mol/L concentration in organ bath) was added, and then cumulative concentration-response curves (half-log increments) of (R)-α-methylhistamine, H3-agonist, were recorded until no further change in response was found. Five minutes before adding the tested compounds, the pyrilamine (1 10^−5 mol/L concentration in organ bath) was added, and after 20 minutes cumulative concentration-response curves (half-log increments) of (R)-α-methylhistamine, H3-agonist, were recorded until no further change in response was found. […]

T1 sequence (Q9JI35 whole entry): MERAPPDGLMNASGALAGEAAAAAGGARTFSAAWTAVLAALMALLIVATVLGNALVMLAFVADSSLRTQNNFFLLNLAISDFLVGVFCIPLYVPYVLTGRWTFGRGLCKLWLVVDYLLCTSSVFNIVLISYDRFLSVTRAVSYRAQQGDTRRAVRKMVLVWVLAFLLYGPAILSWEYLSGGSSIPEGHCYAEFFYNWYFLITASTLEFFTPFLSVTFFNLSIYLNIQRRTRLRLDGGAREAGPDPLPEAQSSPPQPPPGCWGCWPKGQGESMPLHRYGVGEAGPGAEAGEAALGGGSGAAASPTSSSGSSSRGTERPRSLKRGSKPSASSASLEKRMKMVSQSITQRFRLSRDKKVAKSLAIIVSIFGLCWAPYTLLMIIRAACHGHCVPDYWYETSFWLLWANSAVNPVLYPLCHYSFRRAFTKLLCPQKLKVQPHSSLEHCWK

## S=C(NC1CCCCC1)N1CCC(c2cnc[nH]2)CC1 [thioperamide]
  Kb: 2.14 nM
